The values below are quoted from earlier work in EP4537663A1, “INCLUSION COMPLEX COMPRISING TRYPTOPHAN AND ARGININE; FERTILISING, BIOSTIMULANT AND ANTIMICROBIAL COMPOSITION COMPRISING SAME; PRODUCTION METHOD THEREOF; AND USE THEREOF” (Universidad de Valladolid, priority 2022, dated 2023).

SMILES strings stand for the structures. Values after ≈ are worked out from the molar mass of the structure shown.

For the series the following is noted: at 25°C.

`N[C@@H](Cc1c[nH]c2ccccc12)C(=O)O` [tryptophan]: the solubility in water was approximately 11.4 mg/mL (≈ 55.8 mM).
